This note sets out measurements from ChEMBL document CHEMBL3774350, “The discovery of 2-substituted phenol quinazolines as potent RET kinase inhibitors with improved KDR selectivity” (Eur J Med Chem, 2016).

Data set [1] in a line: Cytotoxicity in mouse BA/F3 cells after 48 hrs by Cell titre glo-based luminescence assay. Conditions: BaF3, 48 h.
The nature of data set [2]: Aqueous solubility of compound by LC-MS/MS analysis. Type of data set: physicochemical.

In the case of `COc1cc2ncnc(Nc3cccc(O)c3Cl)c2cc1OC`, in data set [1], the IC50 (commonly the concentration at which inhibition is half-maximal) was more than 10 µM. Same read-out and setting: the result for `COc1cc2ncnc(Nc3cccc(O)c3O)c2cc1OC` reads more than 10 µM; that for `COc1cc2ncnc(Nc3c(F)ccc(O)c3F)c2cc1OC`, more than 10 µM; that for `COc1cc2ncnc(Nc3cc(F)cc(O)c3C)c2cc1OC`, more than 10 µM. As for `COc1cc2ncnc(Nc3cc(O)c(C)cc3F)c2cc1OC`, the IC50 in data set [1] is more than 1 µM. `COc1cc2ncnc(Nc3c(F)ccc(O)c3Cl)c2cc1OC` showed a concentration for half-maximal inhibition (IC50) in data set [1] of more than 10 µM. The same measure, in the same setting: the result for `COc1cc2ncnc(Nc3cccc(O)c3C)c2cc1OC` reads more than 10 µM. The same measure, in the same setting: the result for `COc1cc2ncnc(Nc3cccc(O)c3)c2cc1OC` reads more than 10 µM. On the same count and under the same terms, the result for `COc1cc2ncnc(Nc3cccc(O)c3Br)c2cc1OC` reads more than 10 µM; that for `COc1cc2ncnc(Nc3c(Cl)ccc(O)c3F)c2cc1OC`, more than 10 µM. `COc1cc2ncnc(Nc3c(F)ccc(O)c3C)c2cc1OC` yielded a half-inhibitory concentration (IC50) in data set [1] of more than 10 µM. Besides, the solubility (usually how much of the substance goes into solution per volume) in data set [2] is more than 100 µM.
